Experimental findings from patent publication US9404081B2, “Pyruvate kinase activators for use in therapy” (AGIOS PHARMACEUTICALS, INC., priority 2011, dated 2016) are described below.

Type in all cases: biochemical
In one assay the target is PKR R532W (Homo sapiens, UniProt P30613, R532W). As to the kind of experiment: PKR R532W Single Point Percent Activation Assay. The note with it: for activation at 1 µM: read-out: Act, % 532W; for Act, % 532W: % activation at 1 μM. Put shortly:
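PKR R532W (100 ng/well) preincubated 60 min at RT with compound at 1 μM in Tris pH 7.5, KCl, MgCl2, DTT, BSA. Reaction started with ADP (0.36 mM), with PEP 0.1 mM, NADH 180 μM and LDH coupling; read at OD340, room temperature.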

The next assay concerns the target PKR wt (Homo sapiens, UniProt P30613). As to the kind of experiment: PKR WT Single Point Percent Activation Assay. Put shortly: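 Single concentration of 1 μM compound preincubated 60 min at RT with PKR wt (100 ng/well) in Tris pH 7.5, KCl, MgCl2, DTT, BSA. Reaction started with ADP (0.48 mM final) with PEP 0.15 mM, coupled LDH/NADH (180 μM), read at OD340, room temperature; given as percent activation.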

The target in another assay is PKR T384W (Homo sapiens, UniProt P30613, T384W). As to the kind of experiment: PKR T384W Single Point Percent Activation Assay. The note with it: for activation at 1 µM: read-out: Act. % 384W. The gist of the method: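 Soluble PKR T384W (300 ng/well) preincubated 60 min at RT with 1 μM compound in 50 mM Tris pH 7.5, 100 mM KCl, 5 mM MgCl2, 1 mM DTT, 0.03% BSA. Started with ADP (0.08 mM); PEP 0.23 mM, LDH-coupled NADH (180 μM) consumption read at OD340, room temperature.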

Another assay addresses PKR R510Q (Homo sapiens, UniProt P30613, R510Q). Description: PKR R510Q Single Point Percent Activation Assay. As to conditions: for activation at 1 µM: read-out: Act. % 510Q. The gist of the method:
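Test compound was used at a single concentration of 1 μM and preincubated 60 min at room temperature with PKR R510Q (40 ng/well). The buffer was 50 mM Tris pH 7.5, 100 mM KCl, 5 mM MgCl2, 1 mM DTT and 0.03% BSA. The reaction was started with 0.2 mM ADP and read as OD340 in an LDH-coupled system (0.11 mM PEP, 180 μM NADH).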

Chain of PKR T384W (P30613 whole entry T384W): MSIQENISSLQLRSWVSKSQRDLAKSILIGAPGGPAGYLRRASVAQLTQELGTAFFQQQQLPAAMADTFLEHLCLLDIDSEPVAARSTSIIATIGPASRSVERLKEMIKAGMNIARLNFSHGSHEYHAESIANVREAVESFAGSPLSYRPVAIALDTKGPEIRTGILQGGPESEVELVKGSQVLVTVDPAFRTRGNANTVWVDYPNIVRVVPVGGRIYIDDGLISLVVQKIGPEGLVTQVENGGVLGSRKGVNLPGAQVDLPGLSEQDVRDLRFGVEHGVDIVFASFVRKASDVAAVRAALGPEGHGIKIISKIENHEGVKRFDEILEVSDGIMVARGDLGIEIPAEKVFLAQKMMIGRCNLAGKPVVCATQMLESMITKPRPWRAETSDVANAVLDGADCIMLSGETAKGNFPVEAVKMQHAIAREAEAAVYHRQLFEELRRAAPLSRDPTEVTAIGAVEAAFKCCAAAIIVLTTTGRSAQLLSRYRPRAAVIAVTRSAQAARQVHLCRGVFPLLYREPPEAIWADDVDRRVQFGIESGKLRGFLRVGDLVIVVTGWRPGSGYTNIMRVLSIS
Chain of PKR R510Q (P30613 whole entry R510Q): as the sequence (P30613 whole entry T384W) above, with W384T, R510Q counted along it
Chain of PKR wt (P30613 whole entry): as the sequence (P30613 whole entry T384W) above, with W384T counted along it
Chain of PKR R532W (P30613 whole entry R532W): as the sequence (P30613 whole entry T384W) above, with W384T, R532W counted along it

As to `O=C(c1ccc(NS(=O)(=O)c2cccc3cccnc23)cc1)N1C2CCC1CN(Cc1ccccc1)C2`, the activation at 1 µM at PKR R532W, on PKR wt, on PKR T384W and at PKR R510Q was 101 to 500% throughout.

On to `O=C(c1ccc(NS(=O)(=O)c2cccc3cccnc23)cc1)N1C2CCC1CN(Cc1cc(F)cc(F)c1)C2`, for which the activation at 1 µM at PKR R532W, on PKR wt, on PKR T384W and at PKR R510Q was 101 to 500% in each case.

With `O=C(c1ccc(NS(=O)(=O)c2cccc3cccnc23)cc1)N1CCN(Cc2ccc(F)cc2)C[C@@H]1c1ccccc1`, the activation at 1 µM on PKR R532W, at PKR wt, at PKR T384W and at PKR R510Q was 1 to 100% throughout.

Take `CC(c1ccc(F)c(F)c1F)N1CCN(C(=O)c2ccc(NS(=O)(=O)c3cccc4cccnc34)cc2)[C@H](C)C1` (stereo partly shown): the activation at 1 µM lay in the range of 1 to 100% at PKR R532W, 101 to 500% on PKR wt, 101 to 500% at PKR T384W and 1 to 100% on PKR R510Q.

As to `CC1CN(Cc2cc(F)cc(F)c2)CC(C)N1C(=O)c1ccc(NS(=O)(=O)c2cccc3cccnc23)cc1` (stereo not shown), the activation at 1 µM was 101 to 500% at PKR R532W, 1 to 100% at PKR wt, 1 to 100% on PKR T384W and 101 to 500% on PKR R510Q.

`CC(c1ccc(F)cc1F)N1CCN(C(=O)c2ccc(NS(=O)(=O)c3cccc4cccnc34)cc2)[C@@H](C)C1` (stereo partly shown): the activation at 1 µM fell in the range of 101 to 500% on PKR R532W, 101 to 500% at PKR wt, 101 to 500% on PKR T384W and 1 to 100% on PKR R510Q.

As to `CC(c1ccc(F)cc1F)N1CCN(C(=O)c2ccc(NS(=O)(=O)c3cccc4cccnc34)cc2)[C@H](C)C1` (stereo partly shown), the activation at 1 µM at PKR R532W is 1 to 100%; at PKR wt, 101 to 500%; on PKR T384W it was 1 to 100%; on PKR R510Q it was 1 to 100%.

For the compound `C[C@H]1CN(Cc2cc(F)cc(F)c2)CCN1C(=O)c1ccc(NS(=O)(=O)c2cccc3cccnc23)cc1Cl`, the activation at 1 µM on PKR R532W lay within 101 to 500%; on PKR wt, 1 to 100%; at PKR T384W, 1 to 100%; on PKR R510Q, 101 to 500%.

Regarding `C[C@H]1CN(Cc2ccc(F)c(F)c2F)CCN1C(=O)c1ccc(NS(=O)(=O)c2cccc3cccnc23)cc1` [drawing 87], the “Act, % 532W” value on PKR R532W is on record as “B (a % activation at 1 μM of from 101 to 500)”. On PKR wt (% activation at 1 μM), the “Act. % WT” value is reported as “A (a % activation at 1 μM of from 1 to 100)”. For the same compound, the “Act. % 384W” value at PKR T384W (% activation at 1 μM) is recorded as “A (a % activation at 1 μM of from 1 to 100)”. The “Act. % 510Q” value at PKR R510Q (% activation at 1 μM) is recorded as “A (a % activation at 1 μM of from 1 to 100)”.

For the compound `CC(c1ccc(F)cc1)N1CCN(C(=O)c2ccc(NS(=O)(=O)c3cccc4cccnc34)cc2)[C@@H](C)C1` (stereo partly shown), the activation at 1 µM at PKR R532W, on PKR wt, on PKR T384W and at PKR R510Q was 101 to 500% each time.

Consider `C[C@@H]1CN(Cc2cc(F)c(F)cc2F)CCN1C(=O)c1ccc(NS(=O)(=O)c2cccc3cccnc23)cc1`, for which the activation at 1 µM on PKR R532W, at PKR wt, on PKR T384W and on PKR R510Q was 1 to 100% each time.

For `O=C(c1ccc(NS(=O)(=O)c2cccc3cccnc23)cc1)N1CCN(CC2CC2)C[C@@H]1c1ccccc1`, the activation at 1 µM on PKR R532W, on PKR wt, at PKR T384W and at PKR R510Q was 1 to 100% each time.

On to `C[C@H]1CN(Cc2ccccc2F)CCN1C(=O)c1ccc(NS(=O)(=O)c2cccc3cccnc23)cc1`, for which the activation at 1 µM at PKR R532W fell in the range of 101 to 500%; at PKR wt, 101 to 500%; on PKR T384W, 101 to 500%; on PKR R510Q, 1 to 100%.

For `C[C@H]1CN(CC2CCCCC2)CCN1C(=O)c1ccc(NS(=O)(=O)c2cccc3cccnc23)cc1`, the activation at 1 µM on PKR R532W fell in the range of 101 to 500%; at PKR wt it was 1 to 100%; on PKR T384W, 1 to 100%; at PKR R510Q, 1 to 100%.

For `CC(c1ccc(Cl)c(F)c1)N1CCN(C(=O)c2ccc(NS(=O)(=O)c3cccc4cccnc34)cc2)[C@@H](C)C1` (stereo partly shown), the activation at 1 µM on PKR R532W is 1 to 100%; at PKR wt, 1 to 100%; on PKR T384W, 1 to 100%; on PKR R510Q, 101 to 500%.

In the case of `C[C@@H]1CN(CC2CCCO2)CCN1C(=O)c1ccc(NS(=O)(=O)c2cccc3cccnc23)cc1` (stereo partly shown), the activation at 1 µM at PKR R532W was in the range of 101 to 500%; at PKR wt, 101 to 500%; at PKR T384W it was 1 to 100%; at PKR R510Q, 101 to 500%.

On to `C[C@H]1CN(Cc2ccccc2)CCN1C(=O)c1ccc(NS(=O)(=O)c2cccc3cccnc23)cc1`, for which the activation at 1 µM at PKR R532W, on PKR wt, at PKR T384W and at PKR R510Q was 101 to 500% in each case.

Consider `CC[C@H]1CN(Cc2cc(F)cc(F)c2)CCN1C(=O)c1ccc(NS(=O)(=O)c2cccc3cccnc23)cc1`, for which the activation at 1 µM on PKR R532W, at PKR wt, on PKR T384W and at PKR R510Q was 101 to 500% each time.

Take `CC1CN(CC2CCCCC2)CC(C)N1C(=O)c1ccc(NS(=O)(=O)c2cccc3cccnc23)cc1` (stereo not shown): the activation at 1 µM on PKR R532W, at PKR wt, on PKR T384W and on PKR R510Q was 101 to 500% in each case.

As for `CC(C)OC(=O)N1CCN(C(=O)c2ccc(NS(=O)(=O)c3cccc4cccnc34)cc2)c2ccccc21`, the activation at 1 µM at PKR R532W, on PKR wt, at PKR T384W and on PKR R510Q was 1 to 100% each time.

With `C[C@@H]1CN(CC2CCC2)CCN1C(=O)c1ccc(NS(=O)(=O)c2cccc3cccnc23)cc1`, the activation at 1 µM at PKR R532W lay in the range of 101 to 500%; on PKR wt it was 101 to 500%; on PKR T384W it was 1 to 100%; on PKR R510Q, 101 to 500%.

For the compound `C[C@H]1CN(Cc2cc(F)cc(F)c2)CCN1C(=O)c1ccc(NS(=O)(=O)c2cccc3cccnc23)cc1`, the activation at 1 µM lay in the range of 1 to 100% on PKR R532W, 101 to 500% at PKR wt, 101 to 500% at PKR T384W and 101 to 500% on PKR R510Q.

Regarding `CC1CN(Cc2c(F)cc(F)cc2F)CC(C)N1C(=O)c1ccc(NS(=O)(=O)c2cccc3cccnc23)cc1` (stereo not shown), the activation at 1 µM fell in the range of 101 to 500% at PKR R532W, 101 to 500% on PKR wt, 1 to 100% at PKR T384W and 101 to 500% on PKR R510Q.

Consider `C[C@@H]1CN(Cc2cc(F)cc(F)c2)CCN1C(=O)c1ccc(NS(=O)(=O)c2cccc3cccnc23)cc1`, for which the activation at 1 µM on PKR R532W, on PKR wt, at PKR T384W and on PKR R510Q was 1 to 100% in each case.

With `CC1CN(Cc2ccc(F)cc2)CC(C)N1C(=O)c1ccc(NS(=O)(=O)c2cccc3cccnc23)cc1` (stereo not shown), the activation at 1 µM lay within 101 to 500% at PKR R532W, 1 to 100% at PKR wt, 1 to 100% at PKR T384W and 1 to 100% at PKR R510Q.

As to `O=C1CN(C(=O)c2ccc(NS(=O)(=O)c3cccc4cccnc34)cc2)CCN1CC1CC1`, the activation at 1 µM fell in the range of 1 to 100% on PKR R532W, 101 to 500% on PKR wt, 101 to 500% at PKR T384W and 1 to 100% on PKR R510Q.

Regarding `C[C@@H]1CN(CC2CCCC2)CCN1C(=O)c1ccc(NS(=O)(=O)c2cccc3cccnc23)cc1`, the activation at 1 µM at PKR R532W is 1 to 100%; on PKR wt, 1 to 100%; on PKR T384W, 101 to 500%; on PKR R510Q, 1 to 100%.

On to `C[C@H]1CN(Cc2ccc(F)c(F)c2F)CCN1C(=O)c1ccc(NS(=O)(=O)c2cccc3cccnc23)cc1` [drawing 66], for which the “Act, % 532W” value on PKR R532W is recorded as “A (a % activation at 1 μM of from 1 to 100)”. Moreover, the activation at 1 µM at PKR wt, at PKR T384W and on PKR R510Q was 1 to 100% each time.

For the compound `C[C@H]1CN(Cc2ccc(Cl)c(F)c2)CCN1C(=O)c1ccc(NS(=O)(=O)c2cccc3cccnc23)cc1Cl`, the activation at 1 µM was 101 to 500% on PKR R532W, 1 to 100% on PKR wt, 101 to 500% on PKR T384W and 1 to 100% on PKR R510Q.

As for `C[C@@H]1CN(C(=O)O[C@@H]2CCOC2)CCN1C(=O)c1ccc(NS(=O)(=O)c2cccc3cccnc23)cc1`, the activation at 1 µM was 101 to 500% on PKR R532W, 101 to 500% on PKR wt, 1 to 100% on PKR T384W and 1 to 100% at PKR R510Q.

Turning to `O=C(c1ccc(NS(=O)(=O)c2cccc3cccnc23)cc1)N1C2CCC1CN(CC1CC1)C2`, the activation at 1 µM on PKR R532W was in the range of 101 to 500%; at PKR wt, 101 to 500%; on PKR T384W it was 101 to 500%; on PKR R510Q it was 1 to 100%.
